In one test the test system is DENV-3. In words: Viral yield assay against DENV-3 in Vero cells. The format is cell-based. Conditions: Dengue virus, DENV3, viral yield assay. In short, it runs like this:
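Progeny virus from compound-treated Vero monolayers infected at an MOI of 0.1 is collected after 48 h at 37° C and titered on Vero cells. DMSO serves as control.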

The subject of a further test is DENV-4. As to the kind of experiment: Viral yield assay against DENV-4 in Vero cells. The format is cell-based. Conditions: Dengue virus, DENV4, viral yield assay. An outline of the steps:
(§1)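 Virus yield, titered on Vero cells from cultures harvested at 48 h post infection, gave the EC50. Cultures were infected at MOI 0.1 with dengue-2 and treated with compound or DMSO at 37° C. DENV-1 and DENV-4 were determined similarly.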

The subject of test [1] is Dengue-2 (Strain New Guinea C). In words: Viral yield assay against Dengue-2 in Vero cells. The format is cell-based, Dengue virus. Conditions: Dengue virus, read-out: Activity (EC50 in μM) DENV-2. An outline of the steps:
as §1

The subject of another test is DENV-1. As to the kind of experiment: Viral yield assay against DENV-1 in Vero cells. Conditions: Dengue virus, DENV1, viral yield assay. The format is cell-based. An outline of the steps:
as §1

[2] abbreviates: DENV2, viral yield assay, Vero cells, MOI 0.1, 48 hours post infection.

Read-outs that look alike come from different tables or passages of the source.

The values below come from patent publication US20170121344A1 (Siga Technologies, Inc., priority 2009, published 2017).

A word on the EC50: it is the concentration giving half of the maximal effect. With `COc1cccc(-c2ccc3c(N)c(C(=O)Nc4cccc(Cl)c4)sc3n2)c1` [Compound 561, 3-amino-N-(3-chlorophenyl)-6-(3-methoxyphenyl)thieno[2,3-b]pyridine-2-carboxamide], the concentration giving a half-maximal response (EC50) (with DENV-3; in the test with DENV-4; in test [1] (setting [2]); with DENV-1) was under 5 µM in each case.

With `COc1cccc(-c2ccc3c(N)c(C(=O)Nc4ccc(SC)cc4)sc3n2)c1` [Compound 566, 3-amino-6-(3-methoxyphenyl)-N-(4-methylsulfanylphenyl)thieno[2,3-b] pyridine-2-carboxamide], the 50% effective concentration (EC50) (in the test on DENV-3; with DENV-4; in test [1] (setting [2]); in the test on DENV-1) was under 5 µM throughout.

As for `C=CCSc1nc2ccc(NC(=O)c3sc4nc(-c5cccc(OC)c5)ccc4c3N)cc2s1` [Compound 569, N-(2-allylsulfanyl-1,3-benzothiazol-6-yl)-3-amino-6-(3-methoxyphenyl)thieno [2,3-b]pyridine-2-carboxamide], the concentration giving a half-maximal response (EC50) with DENV-3 is 5 to 25 µM; with DENV-4, under 5 µM; in test [1] (setting [2]), under 5 µM; in the test on DENV-1, under 5 µM.

For `CCCCSc1nc2ccc(NC(=O)c3sc4nc(-c5cccc(OC)c5)ccc4c3N)cc2s1` [Compound 570, 3-amino-N-(2-butylsulfanyl-1,3-benzo-thiazol-6-yl)-6-(3-methoxyphenyl)thieno [2,3-b]pyridine-2-carboxamide], the EC50 (with DENV-3; in the test with DENV-4; in test [1] (setting [2]); in the test on DENV-1) was under 5 µM in each case.

As to `COc1cccc(-c2ccc3c(N)c(C(=O)Nc4ccccc4SCC(C)C)sc3n2)c1` [Compound 571, 3-amino-N-(2-isobutylsulfanylphenyl)-6-(3-methoxyphenyl)thieno[2,3-b] pyridine-2-carboxamide], the EC50 (with DENV-3; in the test on DENV-4; in test [1] (setting [2]); in the test on DENV-1) was under 5 µM in each case.

As to `CCCCSc1ccccc1NC(=O)c1sc2nc(-c3cccc(OC)c3)ccc2c1N` [Compound 572, 3-amino-N-(2-butylsulfanylphenyl)-6-(3-methoxyphenyl)thieno[2,3-b]pyridine-2-carboxamide], the concentration for a half-maximal effect (EC50) (in the test with DENV-3; with DENV-4; in test [1] (setting [2]); in the test on DENV-1) was under 5 µM each time.

As to `COc1ccc(-c2ccc3c(N)c(C(=O)Nc4ccc(C)c(Cl)c4)sc3n2)cc1OC` [Compound 574, 3-amino-N-(3-chloro-4-mehtyl-phenyl)-6-(3,4-dimethoxyphenyl)thieno[2,3-b] pyridine-2-carboxamide], the EC50 (with DENV-3; in the test on DENV-4; in test [1] (setting [2]); in the test on DENV-1) was under 5 µM in each case.

On to `COc1ccc(-c2ccc3c(N)c(C(=O)Nc4cc(Cl)ccc4Cl)sc3n2)cc1OC` [Compound 575, 3-amino-N-(2,5-dichlorophenyl)-6-(3,4-dimethoxyphenyl)thieno[2,3-b]pyridine-2-carboxamide], for which the concentration giving a half-maximal response (EC50) (with DENV-3; in the test on DENV-4; in test [1] (setting [2]); in the test on DENV-1) was under 5 µM each time.

Turning to `COc1ccc(-c2ccc3c(N)c(C(=O)Nc4ccc(C)cc4Br)sc3n2)cc1OC` [Compound 576, 3-amino-N-(2-bromo-4-methyl-phenyl)-6-(3,4-dimethoxyphenyl)thieno[2,3-b] pyridine-2-carboxamide], the EC50 (with DENV-3; in the test on DENV-4; in test [1] (setting [2]); in the test with DENV-1) was under 5 µM throughout.

With `COc1ccc(-c2ccc3c(N)c(C(=O)Nc4ccc(C)c(C)c4)sc3n2)cc1OC` [Compound 577, 3-amino-6-(3,4-dimethoxyphenyl)-N-(3,4-dimethylphenyl)thieno[2,3-b] pyridine-2-carboxamide], the 50% effective concentration (EC50) (in the test on DENV-3; in the test with DENV-4; in test [1] (setting [2]); in the test with DENV-1) was under 5 µM throughout.

In the case of `COc1ccc(-c2ccc3c(N)c(C(=O)Nc4ccc(Br)c(C(F)(F)F)c4)sc3n2)cc1OC` [Compound 583, 3-amino-N-[4-bromo-3-(trifluoromethyl)phenyl]-6-(3,4-dimethoxyphenyl)thieno [2,3-b]pyridin-2-carboxamide], the EC50 (in the test with DENV-3; with DENV-4; in test [1] (setting [2]); with DENV-1) was under 5 µM throughout.

Consider `Nc1c(C(=O)Nc2ccc3c(c2)OCO3)sc2nc(-c3ccc4c(c3)OCO4)ccc12` [Compound 591, 3-amino-N,6-bis(1,3-benzodioxol-5-yl) thieno[2,3-b]pyridine-2-carboxamide], for which the concentration for a half-maximal effect (EC50) was under 5 µM in the test with DENV-3; under 5 µM in the test on DENV-4; under 5 µM in test [1] (DENV2, Vero, 48 h); under 5 µM in the test with DENV-1.

As for `Cc1ccc(NC(=O)c2sc3nc(-c4ccc5c(c4)OCO5)ccc3c2N)c(C)c1` [Compound 596, 3-amino-6-(1,3-benzodioxol-5-yl)-N-(2,4-dimethyphenyl)thieno[2,3-b]pyridine-2-carboxamide], the EC50 (in the test on DENV-3; with DENV-4; in test [1] (setting [2]); in the test with DENV-1) was under 5 µM each time.

For `Nc1c(C(=O)Nc2ccc(F)c(F)c2)sc2nc(-c3ccc4c(c3)OCO4)ccc12` [Compound 597, 3-amino-6-(1,3-benzodioxol-5-yl)-N-(3,4-difluorophenyl)thieno[2,3-b]pyridine-2-carboxamide], the concentration for a half-maximal effect (EC50) in the test on DENV-3 is under 5 µM; in the test with DENV-4 it was under 5 µM; in test [1] (DENV2, Vero, 48 h), under 5 µM; in the test on DENV-1, under 5 µM.

Take `Nc1c(C(=O)Nc2ccc(Cl)cc2F)sc2nc(-c3ccc4c(c3)OCO4)ccc12` [Compound 598, 3-amino-6-(1,3-benzodioxol-5-yl)-N-(4-chloro-2-fluoro-phenyl)thieno[2,3-b] pyridine-2-carboxamide]: the EC50 (in the test with DENV-3; in the test with DENV-4; in test [1] (setting [2]); with DENV-1) was under 5 µM each time.

Turning to `COc1ccc(C(F)(F)F)cc1NC(=O)c1sc2nc(-c3ccc4c(c3)OCO4)ccc2c1N` [Compound 599, 3-amino-6-(1,3-benzodioxol-5-yl)-N-[2-methoxy-5-(trifluoromethyl)phenyl]thieno [2,3-b]pyridine-2-carboxamide], the EC50 (in the test with DENV-3; with DENV-4; in test [1] (setting [2]); with DENV-1) was under 5 µM each time.

On to `Nc1c(C(=O)Nc2ccc(Cl)c(C(F)(F)F)c2)sc2nc(-c3ccc4c(c3)OCO4)ccc12` [Compound 600, 3-amino-6-(1,3-benzodioxol-5-yl)-N-[4-chloro-3-(trifluoromethyl)phenyl]thieno [2,3-b]pyridine-2-carboxamide], for which the EC50 (in the test on DENV-3; with DENV-4; in test [1] (setting [2]); in the test with DENV-1) was under 5 µM each time.

Consider `Nc1c(C(=O)Nc2cccc(F)c2)sc2nc(-c3ccc4c(c3)OCO4)ccc12` [Compound 602, 3-amino-6-(1,3-benzodioxol-5-yl)-N-(3-fluorophenyl)thieno[2,3-b]pyridine-2-carboxamide], for which the EC50 in the test on DENV-3 was under 5 µM; in the test with DENV-4, 5 to 25 µM; in test [1] (DENV2, Vero, 48 h), under 5 µM; in the test with DENV-1, under 5 µM.

Regarding `CCc1cccc(NC(=O)c2sc3nc(-c4ccc(F)cc4)ccc3c2N)c1` [Compound 609, 3-amino-N-(3-ethylphenyl)-6-(4-fluorophenyl)thieno[2,3-b]pyridine-2-carboxamide], the EC50 in the test with DENV-3 was 5 to 25 µM; with DENV-4, 5 to 25 µM; in test [1] (setting [2]), under 5 µM; with DENV-1, under 5 µM.

As for `Cc1ccc(NC(=O)c2sc3nc(-c4ccc(F)cc4)ccc3c2N)cc1F` [Compound 612, 3-amino-N-(3-fluoro-4-methyl-phenyl)-6-(4-fluorophenyl)thieno[2,3-b]pyridine-2-carboxamide], the half-maximal effective concentration (EC50) (in the test with DENV-3; in the test with DENV-4; in test [1] (setting [2]); in the test with DENV-1) was under 5 µM each time.

In the case of `Nc1c(C(=O)Nc2ccc(F)c(F)c2)sc2nc(-c3ccc(F)cc3)ccc12` [Compound 615, 3-amino-N-(3,4-difluorophenyl)-6-(4-fluorophenyl)thieno[2,3-b]pyridine-2-carboxamide], the EC50 (in the test on DENV-3; with DENV-4; in test [1] (setting [2]); in the test on DENV-1) was under 5 µM in each case.

On to `Nc1c(C(=O)Nc2ccc(Br)cc2F)sc2nc(-c3ccc(F)cc3)ccc12` [Compound 616, 3-amino-N-(4-bromo-2-fluoro-phenyl)-6-(4-fluorophenyl)thieno[2,3-b]pyridine-2-carboxamide], for which the EC50 (with DENV-3; in the test with DENV-4; in test [1] (setting [2]); in the test on DENV-1) was under 5 µM each time.

On to `Nc1c(C(=O)Nc2ccc(Cl)cc2F)sc2nc(-c3ccc(F)cc3)ccc12` [Compound 617, 3-amino-N-(4-chloro-2-fluoro-phenyl)-6-(4-fluorophenyl)thieno[2,3-b]pyridine-2-carboxamide], for which the concentration giving a half-maximal response (EC50) (in the test on DENV-3; with DENV-4; in test [1] (setting [2]); in the test with DENV-1) was under 5 µM each time.

Regarding `Nc1c(C(=O)Nc2ccc(Cl)cc2)sc2nc(-c3ccc(F)cc3)ccc12` [Compound 620, 3-amino-N-(4-chlorophenyl)-6-(4-fluorophenyl)thieno[2,3-b]pyridine-2-carboxamide], the concentration giving a half-maximal response (EC50) (in the test on DENV-3; in the test on DENV-4; in test [1] (setting [2]); in the test on DENV-1) was under 5 µM each time.
